{"source": "patent US6358885B1", "about": "“Substituted phenylheterocyclic herbicides” (Mississippi State University, priority 1992, dated 2002)", "experiment_in_all_cases": "Test G preemergence/postemergence greenhouse plant response rating 0 to 100", "key": {"broadleaf signalgrass": {"test_system": "broadleaf signalgrass", "type": "in vivo, Brachiaria plantaginea", "conditions": "0 to 100 scale", "text": "(§1) Seeds, rhizomes, or plant parts of alfalfa (Medicago ativa), annual bluegrass (Poa annua), bermudagrass (Cynodon dactylon), broadleaf signalgrass (Brachiaria plantaginea), common purslane (Portulaca oleracea), common ragweed (Ambrosia elatior), […] (Paspalum dilatatum), goosegrass (Eleusine indica), guineagrass (Panicum maximum), […] exaltata), johnsongrass (Sorghum halepense), large crabgrass (Digitaria sanguinalis), peanut (Arachis hypoagaea), pitted morningglory (Ipomoea lacunosa), purple nutsedge (Cyperus rotundus), sandbur (Cenchrus echinatus), smooth crabgrass (Digitaria ischaemum) and yellow nutsedge (Cyperus esculentus) were planted into greenhouse pots containing greenhouse planting medium. Each pot contained only one plant species. The test compound was dissolved in a non-phytotoxic solvent and applied preemergence and/or postemergence to the plants. Preemergence applications were made within one day of planting the seeds or plant parts. Postemergence applications were applied when the plants were in the two to four leaf stage (three to twenty cm). Test chemicals were dissolved in a non-phytotoxic solvent and applied preemergence and postemergence to the plants. Untreated control plants and treated plants were placed in the greenhouse and visually evaluated for injury at 13 to 21 days after herbicide application. […] A dash (-) response indicates no test result."}, "annual bluegrass": {"test_system": "annual bluegrass", "type": "in vivo, Poa annua", "conditions": "0 to 100 scale", "text": "as §1"}, "common purslane": {"test_system": "common purslane", "type": "in vivo, Portulaca oleracea", "conditions": "0 to 100 scale", "text": "as §1"}, "yellow nutsedge": {"test_system": "yellow nutsedge", "type": "in vivo, Cyperus esculentus", "conditions": "Rate 125 g/ha, 0 to 100 scale", "text": "as §1"}, "guineagrass": {"test_system": "guineagrass", "type": "in vivo, Panicum maximum", "conditions": "0 to 100 scale", "text": "as §1"}, "large crabgrass": {"test_system": "large crabgrass", "type": "in vivo, Digitaria sanguinalis", "conditions": "0 to 100 scale", "text": "as §1"}, "pitted morningglory": {"test_system": "pitted morningglory", "type": "in vivo, Ipomoea lacunosa", "conditions": "0 to 100 scale", "text": "as §1"}, "alfalfa": {"test_system": "alfalfa", "type": "in vivo, Medicago ativa", "conditions": "0 to 100 scale", "text": "as §1"}, "goosegrass": {"test_system": "goosegrass", "type": "in vivo, Eleusine indica", "conditions": "0 to 100 scale", "text": "as §1"}, "itchgrass": {"test_system": "itchgrass", "type": "in vivo, Rottboellia exaltata", "conditions": "0 to 100 scale", "text": "as §1"}, "dallisgrass": {"test_system": "dallisgrass", "type": "in vivo, Paspalum dilatatum", "conditions": "0 to 100 scale", "text": "as §1"}, "peanut": {"test_system": "peanut", "type": "in vivo, Arachis hypoagaea", "conditions": "0 to 100 scale", "text": "as §1"}, "johnsongrass": {"test_system": "johnsongrass", "type": "in vivo, Sorghum halepense", "conditions": "0 to 100 scale", "text": "as §1"}, "bermudagrass": {"test_system": "bermudagrass", "type": "in vivo, Cynodon dactylon", "conditions": "0 to 100 scale", "text": "as §1"}, "purple nutsedge": {"test_system": "purple nutsedge", "type": "in vivo, Cyperus rotundus", "conditions": "Rate 125 g/ha, 0 to 100 scale", "text": "as §1"}, "common ragweed": {"test_system": "common ragweed", "type": "in vivo, Ambrosia elatior", "conditions": "0 to 100 scale", "text": "as §1"}, "sandbur": {"test_system": "sandbur", "type": "in vivo, Cenchrus echinatus", "conditions": "0 to 100 scale", "text": "as §1"}}, "data": [{"smiles": "CCCOc1cc(-c2nn3c(c2Cl)CCCC3)c(F)cc1Cl", "note": "[Compound 23]", "values": [{"measurement": "Plant response rating, Brdlf Sgnlgrass", "setting": "broadleaf signalgrass; POSTEMERGENCE, Rate 125 g/ha", "result": 0}, {"measurement": "Plant response rating, Brdlf Sgnlgrass", "setting": "broadleaf signalgrass; POSTEMERGENCE, Rate 250 g/ha", "result": 0}, {"measurement": "Plant response rating, Brdlf Sgnlgrass", "setting": "broadleaf signalgrass; PREEMERGENCE, Rate 125 g/ha", "result": 0}, {"measurement": "Plant response rating, Brdlf Sgnlgrass", "setting": "broadleaf signalgrass; PREEMERGENCE, Rate 250 g/ha", "result": 0}, {"measurement": "Plant response rating, Ann Bluegrass", "setting": "annual bluegrass; POSTEMERGENCE, Rate 125 g/ha", "result": 0}, {"measurement": "Plant response rating, Ann Bluegrass", "setting": "annual bluegrass; POSTEMERGENCE, Rate 250 g/ha", "result": 0}, {"measurement": "Plant response rating, Ann Bluegrass", "setting": "annual bluegrass; PREEMERGENCE, Rate 125 g/ha", "result": 0}, {"measurement": "Plant response rating, Ann Bluegrass", "setting": "annual bluegrass; PREEMERGENCE, Rate 250 g/ha", "result": 0}, {"measurement": "Plant response rating, Cmn Purslane", "setting": "common purslane; POSTEMERGENCE, Rate 125 g/ha", "result": 70}, {"measurement": "Plant response rating, Cmn Purslane", "setting": "common purslane; POSTEMERGENCE, Rate 250 g/ha", "result": 50}, {"measurement": "Plant response rating, Cmn Purslane", "setting": "common purslane; PREEMERGENCE, Rate 125 g/ha", "result": 0}, {"measurement": "Plant response rating, Cmn Purslane", "setting": "common purslane; PREEMERGENCE, Rate 250 g/ha", "result": 100}, {"measurement": "Plant response rating, Yellow Nutsedge", "setting": "yellow nutsedge; POSTEMERGENCE", "result": 0}, {"measurement": "Plant response rating, Yellow Nutsedge", "setting": "yellow nutsedge; PREEMERGENCE", "result": 0}, {"measurement": "Plant response rating, Guineagrass", "setting": "guineagrass; POSTEMERGENCE, Rate 125 g/ha", "result": 0}, {"measurement": "Plant response rating, Guineagrass", "setting": "guineagrass; POSTEMERGENCE, Rate 250 g/ha", "result": 0}, {"measurement": "Plant response rating, Guineagrass", "setting": "guineagrass; PREEMERGENCE, Rate 125 g/ha", "result": 0}, {"measurement": "Plant response rating, Guineagrass", "setting": "guineagrass; PREEMERGENCE, Rate 250 g/ha", "result": 0}, {"measurement": "Plant response rating, Large Crabgrass", "setting": "large crabgrass; POSTEMERGENCE, Rate 125 g/ha", "result": 0}, {"measurement": "Plant response rating, Large Crabgrass", "setting": "large crabgrass; POSTEMERGENCE, Rate 250 g/ha", "result": 0}, {"measurement": "Plant response rating, Large Crabgrass", "setting": "large crabgrass; PREEMERGENCE, Rate 125 g/ha", "result": 0}, {"measurement": "Plant response rating, Large Crabgrass", "setting": "large crabgrass; PREEMERGENCE, Rate 250 g/ha", "result": 70}, {"measurement": "Plant response rating, Pit Morninglory", "setting": "pitted morningglory; POSTEMERGENCE, Rate 125 g/ha", "result": 0}, {"measurement": "Plant response rating, Pit Morninglory", "setting": "pitted morningglory; POSTEMERGENCE, Rate 250 g/ha", "result": 0}, {"measurement": "Plant response rating, Pit Morninglory", "setting": "pitted morningglory; PREEMERGENCE, Rate 125 g/ha", "result": 0}, {"measurement": "Plant response rating, Pit Morninglory", "setting": "pitted morningglory; PREEMERGENCE, Rate 250 g/ha", "result": 0}, {"measurement": "Plant response rating, Alfalfa Var.", "setting": "alfalfa; POSTEMERGENCE, Rate 125 g/ha", "result": 0}, {"measurement": "Plant response rating, Alfalfa Var.", "setting": "alfalfa; POSTEMERGENCE, Rate 250 g/ha", "result": 0}, {"measurement": "Plant response rating, Alfalfa Var.", "setting": "alfalfa; PREEMERGENCE, Rate 125 g/ha", "result": 0}, {"measurement": "Plant response rating, Alfalfa Var.", "setting": "alfalfa; PREEMERGENCE, Rate 250 g/ha", "result": 0}, {"measurement": "Plant response rating, Goosegrass", "setting": "goosegrass; POSTEMERGENCE, Rate 125 g/ha", "result": 0}, {"measurement": "Plant response rating, Goosegrass", "setting": "goosegrass; POSTEMERGENCE, Rate 250 g/ha", "result": 0}, {"measurement": "Plant response rating, Goosegrass", "setting": "goosegrass; PREEMERGENCE, Rate 125 g/ha", "result": 90}, {"measurement": "Plant response rating, Goosegrass", "setting": "goosegrass; PREEMERGENCE, Rate 250 g/ha", "result": 40}, {"measurement": "Plant response rating, Itchgrass", "setting": "itchgrass; POSTEMERGENCE, Rate 125 g/ha", "result": 0}, {"measurement": "Plant response rating, Itchgrass", "setting": "itchgrass; POSTEMERGENCE, Rate 250 g/ha", "result": 0}, {"measurement": "Plant response rating, Itchgrass", "setting": "itchgrass; PREEMERGENCE, Rate 125 g/ha", "result": 0}, {"measurement": "Plant response rating, Itchgrass", "setting": "itchgrass; PREEMERGENCE, Rate 250 g/ha", "result": 0}, {"measurement": "Plant response rating, Dallisgrass", "setting": "dallisgrass; POSTEMERGENCE, Rate 125 g/ha", "result": 0}, {"measurement": "Plant response rating, Dallisgrass", "setting": "dallisgrass; POSTEMERGENCE, Rate 250 g/ha", "result": 0}, {"measurement": "Plant response rating, Dallisgrass", "setting": "dallisgrass; PREEMERGENCE, Rate 125 g/ha", "result": 0}, {"measurement": "Plant response rating, Dallisgrass", "setting": "dallisgrass; PREEMERGENCE, Rate 250 g/ha", "result": 20}, {"measurement": "Plant response rating, Peanuts", "setting": "peanut; POSTEMERGENCE, Rate 125 g/ha", "result": 0}, {"measurement": "Plant response rating, Peanuts", "setting": "peanut; POSTEMERGENCE, Rate 250 g/ha", "result": 0}, {"measurement": "Plant response rating, Peanuts", "setting": "peanut; PREEMERGENCE, Rate 125 g/ha", "result": 0}, {"measurement": "Plant response rating, Peanuts", "setting": "peanut; PREEMERGENCE, Rate 250 g/ha", "result": 0}, {"measurement": "Plant response rating, Johnsongrass", "setting": "johnsongrass; POSTEMERGENCE, Rate 125 g/ha", "result": 0}, {"measurement": "Plant response rating, Johnsongrass", "setting": "johnsongrass; POSTEMERGENCE, Rate 250 g/ha", "result": 0}, {"measurement": "Plant response rating, Johnsongrass", "setting": "johnsongrass; PREEMERGENCE, Rate 125 g/ha", "result": 0}, {"measurement": "Plant response rating, Johnsongrass", "setting": "johnsongrass; PREEMERGENCE, Rate 250 g/ha", "result": 0}, {"measurement": "Plant response rating, Bermudagrass", "setting": "bermudagrass; POSTEMERGENCE, Rate 125 g/ha", "result": 0}, {"measurement": "Plant response rating, Bermudagrass", "setting": "bermudagrass; POSTEMERGENCE, Rate 250 g/ha", "result": 0}, {"measurement": "Plant response rating, Bermudagrass", "setting": "bermudagrass; PREEMERGENCE, Rate 125 g/ha", "result": 0}, {"measurement": "Plant response rating, Bermudagrass", "setting": "bermudagrass; PREEMERGENCE, Rate 250 g/ha", "result": 50}, {"measurement": "Plant response rating, Purple Nutsedge", "setting": "purple nutsedge; POSTEMERGENCE", "result": 0}, {"measurement": "Plant response rating, Purple Nutsedge", "setting": "purple nutsedge; PREEMERGENCE", "result": 0}, {"measurement": "Plant response rating, Cmn Ragweed", "setting": "common ragweed; POSTEMERGENCE, Rate 125 g/ha", "result": 60}, {"measurement": "Plant response rating, Cmn Ragweed", "setting": "common ragweed; POSTEMERGENCE, Rate 250 g/ha", "result": 20}, {"measurement": "Plant response rating, Cmn Ragweed", "setting": "common ragweed; PREEMERGENCE, Rate 125 g/ha", "result": 0}, {"measurement": "Plant response rating, Cmn Ragweed", "setting": "common ragweed; PREEMERGENCE, Rate 250 g/ha", "result": 0}, {"measurement": "Plant response rating, S. Sandbur", "setting": "sandbur; POSTEMERGENCE, Rate 125 g/ha", "result": 0}, {"measurement": "Plant response rating, S. Sandbur", "setting": "sandbur; POSTEMERGENCE, Rate 250 g/ha", "result": 0}, {"measurement": "Plant response rating, S. Sandbur", "setting": "sandbur; PREEMERGENCE, Rate 125 g/ha", "result": 0}, {"measurement": "Plant response rating, S. Sandbur", "setting": "sandbur; PREEMERGENCE, Rate 250 g/ha", "result": 0}]}]}
